A short description of series [1]: Cisplatin blood concentration versus time after EBUS-TBNI into a patient's lung tumor, fitted with Eq. 14. The note with it: fit of Eq. 14 to blood concentrations after five 8-mg intratumoral injections. In kind it is in vivo, human. Here is the method: Combining Eqs. 2 and 12 gives:
The fitting was achieved by optimizing the values of the two free parameters (kf+ki) and Vf using a gradient-based algorithm to minimize the cost function: […]
Ultrasound guidance was used to attempt to distribute the 5 injections evenly throughout the tumor over an interval of 18 min.

Series [2] concerns head, neck and gastric carcinomas. The note with it: assumed the same for lung carcinomas; cited from earlier work.
Series [3] relates to mitochondrial respiration. The note with it: cisplatin-treated cells; cited from earlier work.

In the case of `N.N.[Cl][Pt][Cl]` [cisplatin], the “ki+kf, sum of rate constants out of the extracellular space” value in series [1] is 0.000251 s⁻¹. Further, in series [2], the “ki, rate constant of flow into the intracellular space” value was 0.000105 s⁻¹. The “concentration above which stepwise decrements in mitochondrial respiration were seen” value in series [3] was “above 5.0 uM”.
